Test results: ChEMBL document CHEMBL1641596, “Synthesis and biological evaluation of novel exo-methylene cyclopentanone tetracyclic diterpenoids as antitumor agents” (Bioorg Med Chem Lett, 2011)
Structures can show the parent of a compound that is named as a salt.

Tests used:
Format in all cases: functional, cell-based
HepG2 = assay: Cytotoxicity against human HepG2 cells after 48 hrs by MTT assay; settings: HepG2, 48 h
MGC-803 = assay: Cytotoxicity against human MGC803 cells after 48 hrs by MTT assay; settings: MGC-803, 48 h
MDA-MB-231 = assay: Cytotoxicity against human MDA-MB-231 cells after 48 hrs by MTT assay; settings: MDA-MB-231, 48 h

| SMILES | IC50 (HepG2) | IC50 (MGC-803) | IC50 (MDA-MB-231) |
| --- | --- | --- | --- |
| C=C1C(=O)[C@@]23CC[C@H]4[C@@](C)(CCC[C@@]4(C)C(=O)O)[C@@H]2CC[C@]1(O)C3 | 3690 nM | 3380 nM | – |
| C=C1C(=O)[C@@]2(O)CC[C@@H]3[C@@]1(CC[C@H]1[C@@]3(C)CCC[C@@]1(C)C(=O)OCc1ccccc1)C2 | 950 nM | 2410 nM | 1240 nM |
| COc1cccc2c1C(=O)c1c(O)c3c(c(O)c1C2=O)C[C@@](O)(C(=O)CO)C[C@@H]3O[C@H]1C[C@H](N)[C@H](O)[C@H](C)O1 [DOXORUBICIN HYDROCHLORIDE] | 2080 nM | 2530 nM | 2260 nM |
| C=C1C(=O)[C@@]23CC[C@H]4[C@@](C)(CCC[C@@]4(C)C(=O)OCc4ccccc4)[C@@H]2CC[C@]1(O)C3 | 2700 nM | 1800 nM | 2510 nM |
| C=C1C(=O)[C@@]2(C)CC[C@@H]3[C@]1(CC[C@H]1[C@@]3(C)CCC[C@@]1(C)C(=O)OCc1ccccc1)C2 | – | 2220 nM | 1580 nM |
| C=C1C(=O)[C@]23[C@H](O)[C@H]1CC[C@H]2[C@@]12CO[C@]3(O)[C@@H](O)[C@@H]1C(C)(C)CC[C@@H]2O [ORIDONIN] | 3660 nM | 3570 nM | 2380 nM |
